Consider four compounds from patent US6022892A, “Bis-platinum complexes with polyamine ligands as antitumor agents” (Hoffman-La Roche Inc., priority 1998, dated 2000).

One experiment has as its system L1210CDDP. Briefly: in vivo antitumor test, L1210/CDDP tumor cells inoculated ip in mouse. As to conditions: ip 24, 120 and 216 hours after tumor inoculation. How it is done: In addition, the compounds of the invention were tested in an "in vivo" test in which L1210 and L1210/CDDP tumor cells are inoculated intraperitoneally (ip) in a mouse and the compound is administered ip 24, 120 and 216 hours after tumor inoculation.
% T/C=[(MST treated)/(MST control)]×100

The subject of a further experiment is A2780. Briefly: cytotoxic effect in vitro on human ovarian carcinoma A2780. In kind it is cell-based. The note with it: after 1 hour from the drug exposure. How it is done:
(§1) The compounds of formula (I) were tested for their cytotoxic effect "in vitro" on various tumor cell lines, among which murine leukemia L1210, human ovarian carcinoma A2780 and the respective cisplatin resistant sublines L1210/CDDP and A2780/CDDP.
(§2) a) IC50 (concentration of the drug expressed as ([…] which causes a 50% inhibition of the cell growth) determined after 2 hours from the drug exposure.
(§3) d), e) IC50 determined after 1 hour from the drug exposure in the non resistant and in the resistant cell lines, receptively.

The test system of the next experiment is L1210/CDDP. Briefly: cytotoxic effect in vitro on cisplatin resistant subline L1210/CDDP. Type of experiment: cell-based, murine. As to conditions: after 72 hours from the drug exposure, resistant line. How it is done: as §1, §2
b), c) IC50 determined after 72 hours from the drug exposure in the non resistant and in the resistant cell lines, receptively.

The subject of another experiment is A2780/CDDP. As to the kind of experiment: cytotoxic effect in vitro on cisplatin resistant subline A2780/CDDP. Type of experiment: cell-based, human. The note with it: after 1 hour from the drug exposure, resistant line. As to the method:
as §1, §2, §3

For the compound `N.N.[Cl][Pt][Cl]` [cisplatin, reference compound], the “T/C % (mean survival time treated/control)” value in the experiment on L1210CDDP (6 mg/kg) is recorded as 110%. In the experiment with A2780, “[trans-(PtCl(NH3)2)2 (-spermine]Cl4 [Example 16]” showed an A2780 IC50 1h below 0.005 µg/mL. Moreover, in the experiment with L1210CDDP (2 mg/kg), the “T/C % (mean survival time treated/control)” value stood at 172%. Regarding `[Cl-].[Cl-].[Cl-].[NH2][Pt+]([NH2])([Cl])[NH]CCCC[NH2+]CCC[NH][Pt+]([NH2])([NH2])[Cl]` [Example 14, [trans-(PtCl(NH3)2)2-(-spermidine]Cl3], the A2780 IC50 1h in the experiment on A2780 was below 0.005 µg/mL. The compound further came in with an L1210/CDDP IC50 72h in the experiment on L1210/CDDP of 0.03 µg/mL. In the experiment on A2780/CDDP, this compound registered an A2780/CDDP IC50 1h of 0.13 µg/mL. “[trans-(PtCl(NH3)2)2 H2 N--(CH2)6 --NH2 ](NO3)2 [reference compound]” gave an L1210/CDDP IC50 72h in the experiment with L1210/CDDP of 0.1 µg/mL.
